Consider one compound from publication PMC5668910 (Biochemistry and Biophysics Reports, 2015).

Common to all, as to parameters: species or system guinea pig
In assay [1] the target is T1, gpBLT1 His83Gly^2.67/Lys88Gly^3.21 (Cavia porcellus, UniProt H0VYV8, H83G/K88G/S309A). Put plainly: saturation binding of LTB4, membrane fraction.
In assay [2] the target is T2, original gpBLT1 dN15/Ser309Ala (Cavia porcellus, UniProt H0VYV8, S309A). Description: saturation binding of LTB4, membrane fraction.
For assay [3], the target named is T1, gpBLT1 His83Gly^2.67/Lys88Gly^3.21. Description: competitive ligand binding.
In assay [4] the target is T2, original gpBLT1 dN15/Ser309Ala. Put plainly: competitive ligand binding.
For assay [5], the target named is purified gpBLT1 His83Gly^2.67/Lys88Gly^3.21 (Cavia porcellus, UniProt H0VYV8, H83G/K88G/S309A). Put plainly: competitive ligand binding to purified receptor.
Chain of purified gpBLT1 His83Gly^2.67/Lys88Gly^3.21 (H0VYV8 1-348 H83G/K88G/S309A): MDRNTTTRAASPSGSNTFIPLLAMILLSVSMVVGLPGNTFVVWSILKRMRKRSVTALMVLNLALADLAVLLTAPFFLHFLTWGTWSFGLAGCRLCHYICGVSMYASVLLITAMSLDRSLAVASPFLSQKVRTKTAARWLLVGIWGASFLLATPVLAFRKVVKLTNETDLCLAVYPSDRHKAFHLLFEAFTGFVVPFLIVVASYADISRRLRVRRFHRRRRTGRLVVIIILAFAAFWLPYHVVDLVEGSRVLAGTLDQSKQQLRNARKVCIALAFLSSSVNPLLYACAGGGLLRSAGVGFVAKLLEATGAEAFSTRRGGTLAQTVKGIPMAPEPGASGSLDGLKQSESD

The structures appear in SMILES notation.

T2 sequence (H0VYV8 16-348 S309A): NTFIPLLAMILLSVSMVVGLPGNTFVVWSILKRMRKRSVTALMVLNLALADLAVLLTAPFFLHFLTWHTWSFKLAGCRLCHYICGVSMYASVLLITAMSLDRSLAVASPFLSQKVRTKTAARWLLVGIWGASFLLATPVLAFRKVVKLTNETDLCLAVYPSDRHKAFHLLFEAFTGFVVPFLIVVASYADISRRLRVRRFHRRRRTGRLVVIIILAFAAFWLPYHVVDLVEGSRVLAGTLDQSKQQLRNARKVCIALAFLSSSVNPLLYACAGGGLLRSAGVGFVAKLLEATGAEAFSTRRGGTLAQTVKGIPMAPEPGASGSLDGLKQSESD
T1 sequence (H0VYV8 1-348 H83G/K88G/S309A): as the sequence (H0VYV8 1-348 H83G/K88G/S309A) above

The Kd is the equilibrium constant for the complex coming apart. Usually Ki stands for the dissociation constant of the complex between target and ligand, obtained from inhibition or displacement. A low value points to higher affinity. What is called IC50 is the point on the concentration scale where inhibition reaches its midpoint. High values mean lower potency, low ones higher potency. Take `CCCCC/C=C\C[C@@H](O)/C=C/C=C/C=C\[C@@H](O)CCCC(=O)O` [LTB4, leukotriene B4]: the Kd was found to be 8.2 nM in assay [1] and 6.6 nM in assay [2]. The figures for the Ki in assay [3] and in assay [4] were 12.9 nM and 3.8 nM, respectively. The same compound had an IC50 in assay [5] of 2.4 nM.
